Measured values as given in the NIST ThermoML archive (doi:10.1021/acs.jced.7b01064).

How the values were obtained:
[1] = xn = mol fraction of the nth substance listed; conditions: 100 kPa, Liquid, x1 = 0.5; for viscosity: Concentric cylinders viscometry; for mass density: Vibrating tube method
[2] = molar heat capacity at constant pressure; xn = mol fraction of the nth substance listed; conditions: 74.66 kPa, Liquid, DSC, x1 = 0.5
[3] = Liquid, Closed cell (Static) method

CCCCOC(=O)CC(O)(CC(=O)O)C(=O)OCCCC (configuration not stated) [2-hydroxy-1,2,3-propanetricarboxylic acid 1,2-dibutyl ester] + CCCCOC(=O)CC(O)(CC(=O)OCCCC)C(=O)O
Conditions	mass density [kg/m3]	molar heat capacity at constant pressure [J/K/mol]	viscosity [mPa·s]
[1], 298.15 K	1129.7	–	3220
[1], 303.15 K	1124.2	–	2120
[1], 313.15 K	1113.4	–	1130
[2], 321.5 K	–	712.66	–
[2], 324.8 K	–	718.9	–
[2], 328.2 K	–	724.78	–
[2], 331.5 K	–	730.1	–
[2], 334.8 K	–	734.82	–
[2], 338.2 K	–	739.17	–
[2], 341.5 K	–	743.58	–
[2], 344.8 K	–	747.72	–

CCCCO [butan-1-ol]
[3]
Conditions	vapor or sublimation pressure [kPa]
293.15 K	0.56
298.15 K	0.84
303.15 K	1.23
308.15 K	1.76
313.15 K	2.44
318.15 K	3.33
323.15 K	4.35
328.15 K	5.33
